Results: article PMC5405074, “Receptor-Mediated Melanoma Targeting with Radiolabeled α-Melanocyte-Stimulating Hormone: Relevance of the Net Charge of the Ligand” (Frontiers in Endocrinology, 2017)
Entries after “also recorded” stand apart in the source; their conditions may differ. Like-named read-outs stand apart in the source and are kept apart here. Non-standard residues stand in square brackets, D forms with d. Residues, ends and D or L forms follow the SMILES beside them. *: point of attachment. DOTA = O=C(O)CN1CCN(CC(=O)O)CCN(CC(=O)*)CCN(CC(=O)O)CC1; pY = N[C@@H](Cc1ccc(OP(=O)(O)O)cc1)C(=O)O; Nle = CCCC[C@H](N)C(=O)O

Legend:
[1] = cited from earlier work
Text: Another approach to reduce uptake of radioactivity by the kidneys is coinjection of radiopeptides with basic amino acids. […] This method was first applied for ^111In-labeled DTPA-octreotide ([31], [32]) and ^90Y-labeled DOTA-[Tyr^3]-octreotide ([32], [33]).

[2] = Biodistribution of ^111In-labeled peptides in B16-F1 melanoma-bearing mice; assay type: in vivo, mouse (B6D2F1); settings: female, iv, total radioactivity; for tissue to tissue ratio at 24 h / tissue to tissue ratio at 48 h: B6D2F1 (C57BL/6 × DBA/2F1 hybrids), mouse; for tissue to tissue ratio at 24 h / tissue to tissue ratio at 48 h / tissue to tissue ratio at 4 h: 185 kBq, mean tumor uptake divided by mean kidney uptake; for tissue to tissue ratio at 24 h: 24 h postinjection; for tissue to tissue ratio at 48 h: 48 h postinjection; for tissue to tissue ratio at 4 h / tissue uptake at 4 h: B6D2F1, mouse; for tissue to tissue ratio at 4 h: 4 h postinjection; for tissue uptake at 4 h: ^111In-labeled peptide, 185 kBq i.v., mean ± SEM of three experiments, n = 5 animals each
Method: (§1) About 5 × 10^5 B16-F1 cells were implanted subcutaneously to female B6D2F1 mice (C57BL/6 × DBA/2F1 hybrids; breeding pairs obtained from IFFA-CREDO, France). Seven days later, 185 kBq of ^111In-labeled ligand in 200 µL PBS/0.1% BSA were injected intravenously into the lateral tail vein of each mouse. Control mice were injected with a mixture of the tracer and 50 µg α-MSH to determine the non-specific uptake of radioligand. The animals were sacrificed 4, 24, and 48 h postinjection, dissected, and the tissues of interest collected, rinsed of excess blood, and weighed. The radioactivity emitted by each organ was measured in a γ-counter to determine the tissue uptake as percentage of the injected dose (ID) per gram of tissue. The total of injected radioactivity per animal was determined by extrapolation from the counts of a standard collected from the injection solution for each animal. Urine samples were collected at 10, 15, and 20 min and 4 h after injection and kept frozen at −80°C until use. Urine (1 vol) was mixed with methanol (2 vol) to precipitate proteins, and the supernatant was analyzed by RP-HPLC/γ-detection, as described in Ref. ([12]).
(§2) Results are expressed as means ± SEM, unless otherwise stated. The statistical evaluation of data was performed using the one- or two-way ANOVA test. When significant overall effects were obtained by ANOVA, multiple comparisons were made with the Bonferroni correction. P < 0.05 was considered statistically significant. The area under the curve (AUC) was calculated with the GraphPad Prism 6 software for the indicated period of time, using the mean tissue uptake value at each time point.

[3] = tested on: B16-F1 cells; assay: Internalization by cultured B16-F1 cells; assay type: cell-based, mouse
Method: B16-F1 cells were seeded in six-well plates and incubated overnight in MEM at 37°C. For the internalization experiments, MEM was replaced by 1 mL MBM (see above) as internalization buffer. After a 1-h incubation at 37°C, 74 kBq of radioligand (^111In-labeled peptides) was added, and the plates were incubated for different time periods. Non-specific internalization was determined by addition of 50 µL of a 1 µM α-MSH solution to the incubation mixture. After the desired incubation times, the cells were extensively washed with MBM kept at 37°C to remove excess radioligand. Incubation in 2 mL ice-cold acid buffer (acetate-buffered Hank’s balanced salt solution, pH 5) for 10 min allowed dissociation of surface-bound ligand. After collection of the acid buffer fraction, the cells were rinsed once with cold MBM, and the washings were pooled with the acid buffer fraction. The cells were washed again with MBM kept at 37°C, lysed in a 1% Triton X-100 solution, and finally transferred to tubes for quantification. The radioactivity of all collected fractions was measured in a γ-counter. A counting plate underwent the same treatment as the plate incubated for the longest time, but its cells were detached with 0.02% EDTA in PBS instead of being lysed with the Triton X-100 solution. Cells from three wells were collected, counted, and thus allowed for normalization of the results obtained. Results were expressed as percent of the added dose per million cells.
Figure 3 Determination of internalization of [^111In] DOTA-NAP-D-Asp-D-Asp (A) and [^111In]DOTA-Phospho-MSH2-9 (B) by cultured B16-F1 cells exposed to the peptides at 37°C for 0.5, 2, and 3.5 h. Surface-bound radioligand was released by an acid buffer wash, and internalized radioligand was determined by lysing cells with detergent. Results are expressed in percent of the added dose per million cells.

[4] = tested on: B16-F1 tumor-bearing mice; assay: Biodistribution of ^111In-labeled peptides in B16-F1 melanoma-bearing mice; assay type: in vivo, mouse (B6D2F1)
Method: as §1, §2

[5] = cited from earlier work; remark: listed apart in the source
[6] = tested on: MC1R; settings: cited from earlier work
[7] = design: method as in 2 sources, ref 37 = [37]; PMID 9574445; doi:10.3109/08860229809045104; 37 Kok RJ Haas M Moolenaar F de Zeeuw D Meijer DK . Drug delivery to the kidneys and the bladder with the low molecular weight protein lysozyme . Ren Fail ( 1998 ) 20 : 211 – 7 . 10.3109/0886022980904 ||| ref 38 = [38]; PMID 11578896; doi:10.1016/S0969-8051(01)00241-4; 38 Akizawa H Arano Y Mifune M Iwado A Saito Y Mukai T Effect of molecular charges on renal uptake of 111 In-DTPA-conjugated peptides . Nucl Med Biol ( 2001 ) 28 : 761 – 8 . 10.1016/S0969-8051(01)00241; settings: urinary excretion; cited from earlier work
[8] = kidney, read-out: Kidney uptake

NCCCC[C@@H](N)C(=O)O [D-Lys]
Effect of coinjection on tumor uptake (in words) [1]: without affecting tumor uptake | Reduction of kidney uptake of radiopeptides by coinjection ([1]; coinjected with ^111In-/^90Y-labeled octreotide peptides): up to 65%

CCCC[C@H](NC(C)=O)C(=O)N[C@@H](CC(=O)O)C(=O)N[C@@H](Cc1c[nH]cn1)C(=O)N[C@H](Cc1ccccc1)C(=O)N[C@@H](CCCNC(=N)N)C(=O)N[C@@H](Cc1c[nH]c2ccccc12)C(=O)NCC(=O)N[C@@H](CCCCNC(=O)CN1CCN(CC(=O)O)CCN(CC(=O)O)CCN(CC(=O)O)CC1)C(=O)N[C@H](CC(=O)O)C(=O)N[C@H](CC(=O)O)C(=O)O [[^111In]DOTA-NAP-D-Asp-D-Asp, metal not drawn] (Ac-[Nle]DH[dF]RWGK(DOTA)[dD][dD]-OH; N-terminus and C-terminus assumed)
tissue to tissue ratio at 24 h [2]: 0.15 | tissue to tissue ratio at 48 h [2]: 0.11 | tissue to tissue ratio at 4 h [2]: 0.32 | tissue uptake at 4 h [2, 8]: 5.95 ± 0.85 %ID/g | tissue uptake at 4 h ([2]; tumor, read-out: Tumor uptake): 1.93 ± 0.11 %ID/g

CCCC[C@H](NC(C)=O)C(=O)N[C@@H](CC(=O)O)C(=O)N[C@@H](Cc1c[nH]cn1)C(=O)N[C@H](Cc1ccccc1)C(=O)N[C@@H](CCCNC(=N)N)C(=O)N[C@@H](Cc1c[nH]c2ccccc12)C(=O)NCC(=O)N[C@@H](CCCCNC(=O)CN1CCN(CC(=O)O)CCN(CC(=O)O)CCN(CC(=O)O)CC1)C(=O)N[C@H](CC(=O)O)C(=O)N[C@H](CC(=O)O)C(=O)O [[^111In]DOTA-NAP-D-Asp-D-Asp] [metal not drawn] (Ac-[Nle]DH[dF]RWGK(DOTA)[dD][dD]-OH; N-terminus and C-terminus assumed)
Internalization profile (in words) ([3]; 37°C, 0.5, 2 and 3.5 h, 74 kBq radioligand): excellent internalization profiles | Internalization plateau (in words) ([3]; 37°C, 3.5 h): not quite reached | Uptake by other organs (in words) ([4]; 4–48 h): Other organs did not substantially accumulate the radiopeptide | Kidney uptake higher than that of [^111In]DOTA-NAP-amide ([4]; 4 h after injection): 25% | Radioactive load of kidney higher than with the reference peptide ([4]; 24 h after injection): 70%

CCCC[C@H](NC(C)=O)C(=O)N[C@@H](CC(=O)O)C(=O)N[C@@H](Cc1c[nH]cn1)C(=O)N[C@H](Cc1ccccc1)C(=O)N[C@@H](CCCNC(=N)N)C(=O)N[C@@H](Cc1c[nH]c2ccccc12)C(=O)NCC(=O)N[C@@H](CCCCNC(=O)CN1CCN(CC(=O)O)CCN(CC(=O)O)CCN(CC(=O)O)CC1)C(N)=O [[^111In]DOTA-NAP-amide, metal not drawn, reference compound]
tissue to tissue ratio at 24 h [2]: 0.96 | tissue to tissue ratio at 48 h [2]: 0.91 | tissue to tissue ratio at 4 h [2]: 1.63 | tissue uptake at 4 h [2, 8]: 4.77 ± 0.26 %ID/g | tissue uptake at 4 h ([2]; tumor, read-out: Tumor uptake): 7.77 ± 0.35 %ID/g | Metabolite in vivo (in words) ([5]; 4 h after injection, ref Froidevaux and Eberle, unpublished): Lys([^111In]DOTA), a metabolite of internalized [^111In]DOTA-NAP-amide occurring 4 h after injection

CCCC[C@H](NC(=O)[C@H](Cc1ccc(OP(=O)(O)O)cc1)NC(=O)CNC(=O)CN1CCN(CC(=O)O)CCN(CC(=O)O)CCN(CC(=O)O)CC1)C(=O)N[C@@H](CC(=O)O)C(=O)N[C@@H](Cc1c[nH]cn1)C(=O)N[C@H](Cc1ccccc1)C(=O)N[C@@H](CCCNC(=N)N)C(=O)N[C@@H](Cc1c[nH]c2ccccc12)C(N)=O [[^111In]DOTA-Phospho-MSH2-9, metal not drawn] ({DOTA}-G[pY][Nle]DH[dF]RW-NH2)
tissue to tissue ratio at 24 h [2]: 1.55 | tissue to tissue ratio at 48 h [2]: 1.16 | tissue to tissue ratio at 4 h [2]: 2.75 | tissue uptake at 4 h [2, 8]: 2.68 ± 0.18 %ID/g | tissue uptake at 4 h ([2]; tumor, read-out: Tumor uptake): 7.33 ± 0.47 %ID/g

CCCC[C@H](NC(=O)[C@H](Cc1ccc(OP(=O)(O)O)cc1)NC(=O)CNC(=O)CN1CCN(CC(=O)O)CCN(CC(=O)O)CCN(CC(=O)O)CC1)C(=O)N[C@@H](CC(=O)O)C(=O)N[C@@H](Cc1c[nH]cn1)C(=O)N[C@H](Cc1ccccc1)C(=O)N[C@@H](CCCNC(=N)N)C(=O)N[C@@H](Cc1c[nH]c2ccccc12)C(N)=O [[^111In]DOTA-Phospho-MSH2-9] [metal not drawn] ({DOTA}-G[pY][Nle]DH[dF]RW-NH2)
Effect of coinjection of α-MSH on melanoma uptake (in words) ([4]; 50 µg α-MSH coinjected, data not shown): significantly blocked melanoma uptake | Clearance from the kidney (in words) ([4]; 4–48 h): slightly slower | Uptake by other organs (in words) ([4]; 4–48 h): very low and did not exceed the values found with [^111In]DOTA-NAP-amide | Kidney retention lower than that of [^111In]DOTA-NAP-amide ([4]; 4 h after injection): 44% | Kidney uptake as percentage of that of the reference peptide ([4]; 4 h after injection): 56% | Retention of radioactivity by the tumor ([4]; 24 h postinjection, decreased to % of 4 h value): 40% | Tumor-to-kidney ratio compared with other peptides (in words) ([4]; AUC (4–48 h) or overall comparison): threefold higher; also recorded: most favorable tumor-to-kidney ratio of a linear DOTA-MSH radiopeptide reported to date | Kidney uptake/retention compared with reference (in words) ([4]; in vivo): markedly lower | Tumor uptake compared with reference (in words) ([4]; in vivo, B16-F1 tumors): almost identical with that of [^111In]DOTA-NAP-amide; also recorded: about as high as for the reference compound | Kidney uptake compared with other peptides (in words) ([4]; peptides of net charge −2 to +2, five of the eight peptides from ref 14): slightly lower kidney uptake than [^111In-DOTA-Nle^4,Asp^5,D-Phe^7,Lys^11(Suc)]-α-MSH4-11-carboxylate

Ac-Nle-cyclo[Asp-His-D-Phe-Arg-Trp-Lys]-NH2 (sidechain bridge or staple) [melanotan II]
Binding affinity (in words) ([6]; cyclic analog compared with α-MSH): increased binding affinity

[DOTA-Nle^4,Asp^5,D-Phe^7,Lys^11(Suc)]-α-MSH4-11-carboxylate
Kidney uptake (in words) ([5]; in vivo): reduced kidney uptake | Tumor uptake (in words) ([5]; in vivo): tumor uptake was also affected | Tumor-to-kidney ratio (in words) ([5]; in vivo): even lower than that of the parent molecule

[Nle^4, D-Phe^7]-α-MSH [NDP-MSH]
Binding affinity (in words) ([6]; linear analog compared with α-MSH): increased binding affinity

[^111In-DOTA-Nle^4,Asp^5,D-Phe^7,Lys^11(Suc)]-α-MSH4-11-carboxylate
MC1R affinity (in words) [6]: lower MC1R affinity | AUC (4–48 h), tumor-to-kidney ([5]; in vivo): 0.62 | Kidney uptake (in words) ([5]; in vivo): lowest kidney uptake | Tumor uptake (in words) ([5]; in vivo): reduced uptake by melanoma tumors

succinylated lysozyme: succinylated lysozyme, compared to the non-succinylated molecule with six amino groups
Excretion compared to non-succinylated molecule (in words) [7]: dramatically increased
